In US6358885B1, “Substituted phenylheterocyclic herbicides” (Mississippi State University, priority 1992, dated 2002):

What was measured:
[1] = test system: blackgrass; test: Test B preemergence/postemergence greenhouse plant response rating 0 to 10; format: in vivo, Alopecurus myosuroides; details: 0 to 10 scale
In short: (§1)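 Both application timings were run together: seeds got compound preemergence, and established seedlings (two to eighteen cm) got it postemergence. Non-phytotoxic solvent carried the chemical. Ratings are visual, versus controls, at twelve to sixteen days.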

[2] = test system: barley; test: as above; format: in vivo, Hordeum vulgare; details: 0 to 10 scale
In short: as §1

[3] = test system: rice; test: as above; format: in vivo, Oryza sativa; details: 0 to 10 scale
In short: as §1

[4] = test system: purple nutsedge; test: as above; format: in vivo, Cyperus rotundus; details: 0 to 10 scale
In short: as §1

[5] = test system: sugar beet; test: as above; format: in vivo, Beta vulgaris; details: 0 to 10 scale
In short: as §1

[6] = test system: barnyardgrass; test: Test C flood test plant response rating 0 to 100; format: in vivo, Echinochloa crus-galli; details: for Plant response rating Barnyardgrass 2: flood test species listed under POSTEMERGENCE, 0 to 100 scale
In short: (§2)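 Compounds in non-phytotoxic solvent applied preemergence to sandy loam one day after planting, postemergence at the 1–4 leaf stage, or to ~2.5 cm floodwater over silt loam.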

[7] = test system: rice; test: Test C flood test plant response rating 0 to 100; format: in vivo, Oryza sativa; details: for Plant response rating Rice Japonica: flood test species listed under POSTEMERGENCE, 0 to 100 scale
In short: as §2

[8] = test system: rape; test: Test B preemergence/postemergence greenhouse plant response rating 0 to 10; format: in vivo, Brassica napus; details: 0 to 10 scale
In short: as §1

[9] = test system: crabgrass; test: as above; format: in vivo, Digitaria spp.; details: 0 to 10 scale
In short: as §1

[10] = test system: pigweed; test: Test C preemergence/postemergence greenhouse plant response rating 0 to 100; format: in vivo, Amaranthusretroflexus; details: POSTEMERGENCE; for Plant response rating Pigweed: 0 to 100 scale
In short: (§3)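 Compounds in non-phytotoxic solvent went onto sandy loam before emergence (seeded one day earlier) or onto plants at the one-to-four leaf stage. Duck salad was treated via flood water (~2.5 cm, maintained) over silt loam.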

[11] = test system: bedstraw; test: Test B preemergence/postemergence greenhouse plant response rating 0 to 10; format: in vivo, Galium aparine; details: 0 to 10 scale
In short: as §1

[12] = test system: corn; test: Test C preemergence/postemergence greenhouse plant response rating 0 to 100; format: in vivo, Zea mays; details: POSTEMERGENCE; for Plant response rating, Corn: 0 to 100 scale
In short: as §3

[13] = test system: lambsquarters; test: Test B preemergence/postemergence greenhouse plant response rating 0 to 10; format: in vivo, Chenopodium album; details: 0 to 10 scale
In short: as §1

[14] = test system: sorghum; test: Test C preemergence/postemergence greenhouse plant response rating 0 to 100; format: in vivo, Sorghum bicolor; details: POSTEMERGENCE; for Plant response rating, Sorghum: 0 to 100 scale
In short: as §3

[15] = test system: umbrella sedge; test: Test C flood test plant response rating 0 to 100; format: in vivo, Cyperus difformis; details: for Plant response rating Umbrella sedge: flood test species listed under POSTEMERGENCE, 0 to 100 scale
In short: as §2

[16] = test system: soybean; test: Test B preemergence/postemergence greenhouse plant response rating 0 to 10; format: in vivo, Glycine max; details: 0 to 10 scale
In short: as §1

[17] = test system: morningglory; test: Test C preemergence/postemergence greenhouse plant response rating 0 to 100; format: in vivo, Ipomoea hederacea; details: POSTEMERGENCE; for Plant response rating, Morningglory: 0 to 100 scale
In short: as §3

[18] = test system: cocklebur; test: Test B preemergence/postemergence greenhouse plant response rating 0 to 10; format: in vivo, Xanthium pensylvanicum; details: 0 to 10 scale
In short: as §1

[19] = POSTEMERGENCE section, flood test, Rate 4 g/ha
[20] = Rate 16 g/ha, under POSTEMERGENCE head (flood test species)

CCC(C)Oc1cc(-c2nn3c(c2Cl)CCCC3)c(F)cc1Cl (centres unmarked) [Compound 48]
Plant response rating, Blackgrass ([1]; POSTEMERGENCE, Rate 50 g/ha): 6 | Plant response rating, Blackgrass ([1]; POSTEMERGENCE, Rate 200 g/ha): 6 | Plant response rating, Blackgrass ([1]; PREEMERGENCE, Rate 50 g/ha): 0 | Plant response rating, Blackgrass ([1]; Rate 200 g/ha, PREEMERGENCE): 5 | Plant response rating, Barley ([2]; POSTEMERGENCE, Rate 50 g/ha): 7 | Plant response rating, Barley ([2]; POSTEMERGENCE, Rate 200 g/ha): 5 | Plant response rating, Barley ([2]; PREEMERGENCE, Rate 50 g/ha): 0 | Plant response rating, Barley ([2]; Rate 200 g/ha, PREEMERGENCE): 0 | Plant response rating, Rice ([3]; POSTEMERGENCE, Rate 50 g/ha): 3 | Plant response rating, Rice ([3]; PREEMERGENCE, Rate 50 g/ha): 1 | Plant response rating, Rice ([3]; Rate 200 g/ha, POSTEMERGENCE): 8 | Plant response rating, Rice ([3]; Rate 200 g/ha, PREEMERGENCE): 2 | Plant response rating, Nutsedge ([4]; POSTEMERGENCE, Rate 50 g/ha): 4 | Plant response rating, Nutsedge ([4]; PREEMERGENCE, Rate 50 g/ha): 0 | Plant response rating, Nutsedge ([4]; Rate 200 g/ha, POSTEMERGENCE): 5 | Plant response rating, Nutsedge ([4]; Rate 200 g/ha, PREEMERGENCE): 0 | Plant response rating, Sugar beet ([5]; POSTEMERGENCE, Rate 50 g/ha): 10 | Plant response rating, Sugar beet ([5]; PREEMERGENCE, Rate 50 g/ha): 9 | Plant response rating, Sugar beet ([5]; Rate 200 g/ha, POSTEMERGENCE): 10 | Plant response rating, Sugar beet ([5]; Rate 200 g/ha, PREEMERGENCE): 10 | Plant response rating (0 to 100), Barnyardgrass 2 [6, 19]: 20 | Plant response rating (0 to 100), Barnyardgrass 2 [6, 20]: 40 | Plant response rating Barnyardgrass 2 ([6]; 62 g/ha): 95 | Plant response rating Barnyardgrass 2 ([6]; 250 g/ha): 100 | Plant response rating (0 to 100), Rice Japonica [7, 19]: 10 | Plant response rating (0 to 100), Rice Japonica [7, 20]: 20 | Plant response rating Rice Japonica ([7]; 62 g/ha): 30 | Plant response rating Rice Japonica ([7]; 250 g/ha): 60 | Plant response rating, Rape ([8]; POSTEMERGENCE, Rate 50 g/ha): 8 | Plant response rating, Rape ([8]; PREEMERGENCE, Rate 50 g/ha): 4 | Plant response rating, Rape ([8]; Rate 200 g/ha, POSTEMERGENCE): 6 | Plant response rating, Rape ([8]; Rate 200 g/ha, PREEMERGENCE): 9 | Plant response rating, Crabgrass ([9]; POSTEMERGENCE, Rate 50 g/ha): 8 | Plant response rating, Crabgrass ([9]; POSTEMERGENCE, Rate 200 g/ha): 9 | Plant response rating, Crabgrass ([9]; PREEMERGENCE, Rate 50 g/ha): 2 | Plant response rating, Crabgrass ([9]; Rate 200 g/ha, PREEMERGENCE): 9 | Plant response rating Pigweed ([10]; 62 g/ha): 100 | Plant response rating Pigweed ([10]; 250 g/ha): 100 | Plant response rating (0 to 100), Pigweed ([10]; Rate 4 g/ha): 80 | Plant response rating (0 to 100), Pigweed ([10]; Rate 16 g/ha): 90 | Plant response rating, Bedstraw ([11]; POSTEMERGENCE, Rate 50 g/ha): 9 | Plant response rating, Bedstraw ([11]; POSTEMERGENCE, Rate 200 g/ha): 9 | Plant response rating, Bedstraw ([11]; PREEMERGENCE, Rate 50 g/ha): 3 | Plant response rating, Bedstraw ([11]; Rate 200 g/ha, PREEMERGENCE): 9 | Plant response rating, Corn ([12]; 62 g/ha): 40 | Plant response rating, Corn ([12]; 250 g/ha): 50 | Plant response rating (0 to 100), Corn ([12]; Rate 4 g/ha): 10 | Plant response rating (0 to 100), Corn ([12]; Rate 16 g/ha): 30 | Plant response rating, Lambsquarter ([13]; POSTEMERGENCE, Rate 50 g/ha): 10 | Plant response rating, Lambsquarter ([13]; PREEMERGENCE, Rate 50 g/ha): 10 | Plant response rating, Lambsquarter ([13]; Rate 200 g/ha, POSTEMERGENCE): 10 | Plant response rating, Lambsquarter ([13]; Rate 200 g/ha, PREEMERGENCE): 10 | Plant response rating, Sorghum ([14]; 62 g/ha): 50 | Plant response rating, Sorghum ([14]; 250 g/ha): 70 | Plant response rating (0 to 100), Sorghum ([14]; Rate 4 g/ha): 30 | Plant response rating (0 to 100), Sorghum ([14]; Rate 16 g/ha): 40 | Plant response rating (0 to 100), Umbrella sedge [15, 19]: 10 | Plant response rating (0 to 100), Umbrella sedge [15, 20]: 10 | Plant response rating Umbrella sedge ([15]; 62 g/ha): 40 | Plant response rating Umbrella sedge ([15]; 250 g/ha): 70 | Plant response rating, Soybean ([16]; POSTEMERGENCE, Rate 50 g/ha): 7 | Plant response rating, Soybean ([16]; PREEMERGENCE, Rate 50 g/ha): 0 | Plant response rating, Soybean ([16]; Rate 200 g/ha, POSTEMERGENCE): 7 | Plant response rating, Soybean ([16]; Rate 200 g/ha, PREEMERGENCE): 0 | Plant response rating, Morningglory ([17]; 62 g/ha): 60 | Plant response rating, Morningglory ([17]; 250 g/ha): 95 | Plant response rating (0 to 100), Morningglory ([17]; Rate 4 g/ha): 30 | Plant response rating (0 to 100), Morningglory ([17]; Rate 16 g/ha): 50 | Plant response rating, Cocklebur ([18]; POSTEMERGENCE, Rate 50 g/ha): 7 | Plant response rating, Cocklebur ([18]; POSTEMERGENCE, Rate 200 g/ha): 9 | Plant response rating, Cocklebur ([18]; Rate 200 g/ha, PREEMERGENCE): 0
